Measured values: US4167405A, “Fertilizers for supplying plants with iron” (Bayer Aktiengesellschaft, priority 1977, dated 1979)
Each block holds one compound with its values, some of them ahead of it.

What was measured:
[1] = Water solubility of the preparation; format: physicochemical
[2] = system: Chrysanthemum indicum (Variety: Yellow Delaware); assay: Combating iron deficiency/leaf uptake test; format: in vivo
Method: Test plant: Chrysanthemum indicum (Variety: Yellow Delaware)
Culture substrate: Mixture of polystyrene foam flock (Styromull) and potassium alginate in the volume ratio of 10:1
To prepare a suitable formulation of the active compound, the particular amount of active compound desired was dissolved in water.
Test plants were grown in a culture substrate of the composition indicated above, fertilization and watering being effected by adding, twice weekly, a mineral-iron-deficient nutrient solution according to Hoagland and Arnon (Circular 347, College of Agriculture, University of California, Berkeley 1950). […] After 2 days the plants were again sprayed with the active compound formulation in the same manner.
The evaluation took place when an average of 2 leaves had newly formed on the plants treated with an optimum amount of a water-soluble, commercially available iron fertilizer, in each case, the average number of newly formed leaves was determined on all test plants. Furthermore, the intensity of the green colour of newly formed leaves was rated and expressed as a numerical code.
In this, the figures denoted:
1=0% chlorotic (dark green)
9=100% chlorotic (corresponding to the untreated control plants)

[3] = nutrient preparation in the spray liquor 0.03 %
[4] = nutrient preparation in the spray liquor 0.14 %
[5] = nutrient preparation in the spray liquor 0.15 %
[6] = nutrient preparation in the spray liquor 0.74 %
[7] = nutrient preparation in the spray liquor 0.16 %
[8] = nutrient preparation in the spray liquor 0.78 %
[9] = nutrient preparation in the spray liquor 0.13 %
[10] = nutrient preparation in the spray liquor 0.62 %
[11] = nutrient preparation in the spray liquor 0.66 %
[12] = nutrient preparation in the spray liquor 0.12 %
[13] = nutrient preparation in the spray liquor 0.59 %

- Water solubility of the preparation [1]: slight
Compound: CCCCCCCC(=O)[c-]1cccc1.[Fe+2].c1cc[cH-]c1 [Example 6, n-octanoylferrocene]
- Average number of newly formed leaves [2, 3]: 4
- Intensity of the green colour of young leaves [2, 3]: 3 (25% chlorotic)
- Average number of newly formed leaves [2, 4]: 5
- Intensity of the green colour of young leaves [2, 4]: 2-3

- Water solubility of the preparation [1]: slight
Compound: CCCCCCCCC(=O)[c-]1cccc1.[Fe+2].c1cc[cH-]c1 [Example 7, n-nonaoylferrocene]
- Average number of newly formed leaves [2, 3]: 4
- Intensity of the green colour of young leaves [2, 3]: 3 (25% chlorotic)
- Average number of newly formed leaves [2, 5]: 5
- Intensity of the green colour of young leaves [2, 5]: 2-3
- Average number of newly formed leaves [2, 6]: 5
- Intensity of the green colour of young leaves [2, 6]: 2

- Water solubility of the preparation [1]: slight
Compound: CCCCCCCCCC(=O)[c-]1cccc1.[Fe+2].c1cc[cH-]c1 [Example 2, n-decanoyl-ferrocene]
- Average number of newly formed leaves [2, 3]: 4
- Intensity of the green colour of young leaves [2, 3]: 3 (25% chlorotic)
- Average number of newly formed leaves [2, 7]: 5
- Intensity of the green colour of young leaves [2, 7]: 2-3
- Average number of newly formed leaves [2, 8]: 5
- Intensity of the green colour of young leaves [2, 8]: 2

- Water solubility of the preparation [1]: slight
Compound: CCCCCC(=O)[c-]1cccc1.[Fe+2].c1cc[cH-]c1 [Example 4, n-hexanoylferrocene]
- Average number of newly formed leaves [2, 9]: 3
- Intensity of the green colour of young leaves [2, 9]: 3 (25% chlorotic)
- Average number of newly formed leaves [2, 10]: 3
- Intensity of the green colour of young leaves [2, 10]: 2-3

- Water solubility of the preparation [1]: slight
Compound: CCCCCCC(=O)[c-]1cccc1.[Fe+2].c1cc[cH-]c1 [Example 5, n-heptanoylferrocene]
- Average number of newly formed leaves [2, 9]: 4
- Intensity of the green colour of young leaves [2, 9]: 3 (25% chlorotic)
- Average number of newly formed leaves [2, 11]: 4
- Intensity of the green colour of young leaves [2, 11]: 2-3

- Water solubility of the preparation [1]: slight
Compound: CCCCC(=O)[c-]1cccc1.[Fe+2].c1cc[cH-]c1 [Example 3, n-pentanoylferrocene]
- Average number of newly formed leaves [2, 12]: 4
- Intensity of the green colour of young leaves [2, 12]: 2-3
- Average number of newly formed leaves [2, 13]: 4
- Intensity of the green colour of young leaves [2, 13]: 2
